Test results reported in ChEMBL document CHEMBL2406977, “The discovery of PLK4 inhibitors: (E)-3-((1H-Indazol-6-yl)methylene)indolin-2-ones as novel antiproliferative agents” (J Med Chem, 2013).

Tests used:
[1] = Permeability of the compound at pH 7.4 by PAMPA; assay type: ADME; settings: read-out: permeability
[2] = target: Cytochrome P450 2C9 (Homo sapiens, UniProt P11712); assay: Inhibition of CYP2C9 (unknown origin) using MFC as substrate after 45 mins by fluorescence assay; assay type: ADME
Sequence of Cytochrome P450 2C9 (P11712 whole entry): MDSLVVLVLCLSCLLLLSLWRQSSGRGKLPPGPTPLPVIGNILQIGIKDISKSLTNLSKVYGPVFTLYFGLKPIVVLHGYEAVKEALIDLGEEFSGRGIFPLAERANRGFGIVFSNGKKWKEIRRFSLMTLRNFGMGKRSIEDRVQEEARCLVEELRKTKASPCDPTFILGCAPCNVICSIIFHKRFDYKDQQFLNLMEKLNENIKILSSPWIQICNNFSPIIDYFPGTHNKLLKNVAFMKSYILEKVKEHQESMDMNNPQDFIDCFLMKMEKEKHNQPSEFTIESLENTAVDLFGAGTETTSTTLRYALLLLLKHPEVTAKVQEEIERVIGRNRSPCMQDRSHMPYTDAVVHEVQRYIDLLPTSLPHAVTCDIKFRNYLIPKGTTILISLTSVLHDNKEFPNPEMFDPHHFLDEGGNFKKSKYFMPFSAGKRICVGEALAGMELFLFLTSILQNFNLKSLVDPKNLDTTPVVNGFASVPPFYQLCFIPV

[3] = target: Cytochrome P450 2C19 (Homo sapiens, UniProt P33261); assay: Inhibition of CYP2C19 (unknown origin) using MFC as substrate after 30 mins by fluorescence assay; assay type: ADME
Sequence of Cytochrome P450 2C19 (P33261 whole entry): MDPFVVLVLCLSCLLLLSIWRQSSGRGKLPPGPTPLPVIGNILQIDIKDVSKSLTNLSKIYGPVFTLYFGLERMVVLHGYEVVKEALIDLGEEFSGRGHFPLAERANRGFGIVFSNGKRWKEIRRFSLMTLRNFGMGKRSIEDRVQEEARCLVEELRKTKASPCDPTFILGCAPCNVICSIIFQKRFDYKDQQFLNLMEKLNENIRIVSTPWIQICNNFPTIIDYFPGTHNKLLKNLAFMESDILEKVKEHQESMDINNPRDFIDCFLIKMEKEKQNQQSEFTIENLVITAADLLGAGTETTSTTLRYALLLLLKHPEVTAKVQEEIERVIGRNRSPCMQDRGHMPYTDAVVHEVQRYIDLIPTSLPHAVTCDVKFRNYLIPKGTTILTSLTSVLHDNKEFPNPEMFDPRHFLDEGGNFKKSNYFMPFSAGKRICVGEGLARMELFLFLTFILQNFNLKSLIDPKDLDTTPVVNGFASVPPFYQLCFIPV

[4] = target: T1, Cytochrome P450 1A2 (Homo sapiens, UniProt P05177); assay: Inhibition of CYP1A2 (unknown origin) using CEC as substrate after 15 mins by fluorescence assay; assay type: ADME
T1 sequence (P05177 whole entry): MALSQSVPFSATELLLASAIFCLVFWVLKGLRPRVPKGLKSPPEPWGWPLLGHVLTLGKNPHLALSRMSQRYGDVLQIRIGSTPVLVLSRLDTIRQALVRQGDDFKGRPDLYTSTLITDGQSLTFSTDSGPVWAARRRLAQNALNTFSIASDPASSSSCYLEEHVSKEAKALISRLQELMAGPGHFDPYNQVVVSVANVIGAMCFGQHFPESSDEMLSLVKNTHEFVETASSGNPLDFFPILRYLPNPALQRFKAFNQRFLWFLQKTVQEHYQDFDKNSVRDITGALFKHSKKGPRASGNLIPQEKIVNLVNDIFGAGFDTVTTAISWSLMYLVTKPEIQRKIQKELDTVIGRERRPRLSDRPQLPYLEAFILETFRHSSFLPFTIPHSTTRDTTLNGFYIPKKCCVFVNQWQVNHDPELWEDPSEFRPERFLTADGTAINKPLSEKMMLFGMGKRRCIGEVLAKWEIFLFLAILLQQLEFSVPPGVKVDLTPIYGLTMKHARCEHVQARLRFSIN

[5] = target: Cytochrome P450 2D6 (Homo sapiens, UniProt P10635); assay: Inhibition of CYP2D6 (unknown origin) using AMMC as substrate after 30 mins by fluorescence assay; assay type: ADME
Sequence of Cytochrome P450 2D6 (P10635 whole entry): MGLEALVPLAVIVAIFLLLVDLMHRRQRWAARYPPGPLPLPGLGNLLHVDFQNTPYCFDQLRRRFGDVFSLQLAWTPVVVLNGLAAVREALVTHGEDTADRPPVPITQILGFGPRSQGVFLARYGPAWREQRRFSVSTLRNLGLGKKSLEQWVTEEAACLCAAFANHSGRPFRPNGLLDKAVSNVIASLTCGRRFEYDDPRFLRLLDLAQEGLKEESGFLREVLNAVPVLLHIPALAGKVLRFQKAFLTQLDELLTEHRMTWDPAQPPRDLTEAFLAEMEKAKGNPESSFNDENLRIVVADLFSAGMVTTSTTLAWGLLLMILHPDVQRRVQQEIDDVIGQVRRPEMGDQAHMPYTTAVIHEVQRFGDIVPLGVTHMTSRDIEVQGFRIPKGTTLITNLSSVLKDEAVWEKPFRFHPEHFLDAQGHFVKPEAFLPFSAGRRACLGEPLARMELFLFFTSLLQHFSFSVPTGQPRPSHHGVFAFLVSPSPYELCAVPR

[6] = target: Cytochrome P450 3A4 (Homo sapiens, UniProt P08684); assay: Inhibition of CYP3A4 (unknown origin) after 10 mins by fluorescence assay; assay type: ADME
Sequence of Cytochrome P450 3A4 (P08684 whole entry): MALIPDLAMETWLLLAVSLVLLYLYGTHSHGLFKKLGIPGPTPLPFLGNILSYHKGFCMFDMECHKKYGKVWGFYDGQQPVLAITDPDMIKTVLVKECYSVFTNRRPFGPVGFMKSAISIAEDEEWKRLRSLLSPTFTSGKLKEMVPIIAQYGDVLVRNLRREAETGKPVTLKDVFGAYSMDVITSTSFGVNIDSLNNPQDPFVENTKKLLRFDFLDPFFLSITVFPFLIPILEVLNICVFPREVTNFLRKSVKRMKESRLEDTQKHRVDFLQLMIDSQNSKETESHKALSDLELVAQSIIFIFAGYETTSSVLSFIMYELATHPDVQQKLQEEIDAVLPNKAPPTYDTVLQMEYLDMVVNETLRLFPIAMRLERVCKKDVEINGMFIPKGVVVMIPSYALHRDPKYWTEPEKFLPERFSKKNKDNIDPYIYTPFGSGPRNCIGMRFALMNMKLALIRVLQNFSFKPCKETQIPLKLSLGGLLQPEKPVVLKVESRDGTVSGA

[7] = system: MDA-MB-468; assay: Cell cycle arrest in human MDA-MB-468 cells assessed as accumulation of 16N peaks at 1 uM after 2 days by FACS analysis; assay type: functional
[8] = system: MDA-MB-468; assay: Cell cycle arrest in human MDA-MB-468 cells assessed as accumulation of 8N peaks at 1 uM after 2 days by FACS analysis; assay type: functional
[9] = system: MDA-MB-468; assay: Cell cycle arrest in human MDA-MB-468 cells assessed as accumulation at G1 phase at 1 uM after 2 days by FACS analysis; assay type: functional
[10] = system: MDA-MB-468; assay: Cell cycle arrest in human MDA-MB-468 cells assessed as accumulation of 16N peaks at 0.25 uM after 2 days by FACS analysis; assay type: functional
[11] = system: MDA-MB-468; assay: Cell cycle arrest in human MDA-MB-468 cells assessed as accumulation at G1 phase at 0.25 uM after 2 days by FACS analysis; assay type: functional
[12] = system: MDA-MB-468; assay: Cell cycle arrest in human MDA-MB-468 cells assessed as accumulation of 8N peaks at 0.25 uM after 2 days by FACS analysis; assay type: functional
[13] = system: MDA-MB-468; assay: Cell cycle arrest in human MDA-MB-468 cells assessed as accumulation of 16N peaks at 0.5 uM after 2 days by FACS analysis; assay type: functional
[14] = system: MDA-MB-468; assay: Cell cycle arrest in human MDA-MB-468 cells assessed as accumulation of 8N peaks at 0.5 uM after 2 days by FACS analysis; assay type: functional
[15] = system: MDA-MB-468; assay: Cell cycle arrest in human MDA-MB-468 cells assessed as accumulation at G1 phase at 0.5 uM after 2 days by FACS analysis; assay type: functional
[16] = system: HCC1954; assay: Antiproliferative activity against human HCC1954 cells assessed as growth inhibition after 5 days by SRB assay; assay type: functional; settings: HCC1954, 120 h
[17] = system: MDA-MB-231; assay: Antiproliferative activity against human MDA-MB-231 cells assessed as growth inhibition after 5 days by SRB assay; assay type: functional; settings: MDA-MB-231, 120 h
[18] = system: SK-BR-3; assay: Antiproliferative activity against human SKBR3 cells assessed as growth inhibition after 5 days by SRB assay; assay type: functional; settings: SK-BR-3, 120 h
[19] = system: MDA-MB-468; assay: Antiproliferative activity against human MDA-MB-468 cells assessed as growth inhibition after 5 days by SRB assay; assay type: functional; settings: MDA-MB-468, 120 h
[20] = system: MCF7; assay: Antiproliferative activity against human MCF7 cells assessed as growth inhibition after 5 days by SRB assay; assay type: functional; settings: MCF7, 120 h
[21] = target: Serine/threonine-protein kinase PLK3 (Homo sapiens, UniProt Q9H4B4); assay: Inhibition of PLK3 (unknown origin) by FRET-based homogeneous assay
Sequence of Serine/threonine-protein kinase PLK3 (Q9H4B4 whole entry): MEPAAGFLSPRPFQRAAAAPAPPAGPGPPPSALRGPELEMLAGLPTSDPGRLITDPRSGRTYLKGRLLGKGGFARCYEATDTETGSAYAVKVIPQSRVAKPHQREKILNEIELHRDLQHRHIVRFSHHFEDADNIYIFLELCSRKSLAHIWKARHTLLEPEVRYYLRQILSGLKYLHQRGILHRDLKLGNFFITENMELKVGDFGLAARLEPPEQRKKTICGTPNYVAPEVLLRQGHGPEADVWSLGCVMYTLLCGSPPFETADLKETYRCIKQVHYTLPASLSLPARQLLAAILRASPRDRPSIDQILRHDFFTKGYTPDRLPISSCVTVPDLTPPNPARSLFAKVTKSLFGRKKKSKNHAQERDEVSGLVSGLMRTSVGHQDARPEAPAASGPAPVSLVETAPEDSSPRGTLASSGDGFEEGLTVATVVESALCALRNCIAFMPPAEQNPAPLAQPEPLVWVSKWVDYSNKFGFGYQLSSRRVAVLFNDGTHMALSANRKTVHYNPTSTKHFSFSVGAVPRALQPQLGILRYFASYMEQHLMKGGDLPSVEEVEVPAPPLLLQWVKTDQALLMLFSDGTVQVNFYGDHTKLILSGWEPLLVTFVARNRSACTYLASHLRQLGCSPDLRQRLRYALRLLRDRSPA

[22] = target: Serine/threonine-protein kinase PLK1 (Homo sapiens, UniProt P53350); assay: Inhibition of PLK1 (unknown origin) by FRET-based homogeneous assay
Sequence of Serine/threonine-protein kinase PLK1 (P53350 whole entry): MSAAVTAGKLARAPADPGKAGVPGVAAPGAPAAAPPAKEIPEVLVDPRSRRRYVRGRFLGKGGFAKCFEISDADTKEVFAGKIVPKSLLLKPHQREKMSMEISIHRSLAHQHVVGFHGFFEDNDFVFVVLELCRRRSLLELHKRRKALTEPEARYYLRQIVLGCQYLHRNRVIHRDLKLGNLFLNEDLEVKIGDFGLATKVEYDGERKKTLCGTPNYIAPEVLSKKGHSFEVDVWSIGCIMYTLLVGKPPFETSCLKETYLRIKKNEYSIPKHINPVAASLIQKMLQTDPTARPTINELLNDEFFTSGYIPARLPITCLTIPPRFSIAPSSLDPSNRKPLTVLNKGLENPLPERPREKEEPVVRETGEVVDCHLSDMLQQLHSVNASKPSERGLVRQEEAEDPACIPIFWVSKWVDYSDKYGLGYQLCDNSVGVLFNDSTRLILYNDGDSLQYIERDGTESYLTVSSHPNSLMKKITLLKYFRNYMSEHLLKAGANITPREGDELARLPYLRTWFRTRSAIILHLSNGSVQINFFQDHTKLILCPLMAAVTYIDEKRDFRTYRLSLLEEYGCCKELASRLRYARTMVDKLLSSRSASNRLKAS

[23] = target: Serine/threonine-protein kinase PLK2 (Homo sapiens, UniProt Q9NYY3); assay: Inhibition of PLK2 (unknown origin) by FRET-based homogeneous assay
Sequence of Serine/threonine-protein kinase PLK2 (Q9NYY3 whole entry, the tested form may be a part): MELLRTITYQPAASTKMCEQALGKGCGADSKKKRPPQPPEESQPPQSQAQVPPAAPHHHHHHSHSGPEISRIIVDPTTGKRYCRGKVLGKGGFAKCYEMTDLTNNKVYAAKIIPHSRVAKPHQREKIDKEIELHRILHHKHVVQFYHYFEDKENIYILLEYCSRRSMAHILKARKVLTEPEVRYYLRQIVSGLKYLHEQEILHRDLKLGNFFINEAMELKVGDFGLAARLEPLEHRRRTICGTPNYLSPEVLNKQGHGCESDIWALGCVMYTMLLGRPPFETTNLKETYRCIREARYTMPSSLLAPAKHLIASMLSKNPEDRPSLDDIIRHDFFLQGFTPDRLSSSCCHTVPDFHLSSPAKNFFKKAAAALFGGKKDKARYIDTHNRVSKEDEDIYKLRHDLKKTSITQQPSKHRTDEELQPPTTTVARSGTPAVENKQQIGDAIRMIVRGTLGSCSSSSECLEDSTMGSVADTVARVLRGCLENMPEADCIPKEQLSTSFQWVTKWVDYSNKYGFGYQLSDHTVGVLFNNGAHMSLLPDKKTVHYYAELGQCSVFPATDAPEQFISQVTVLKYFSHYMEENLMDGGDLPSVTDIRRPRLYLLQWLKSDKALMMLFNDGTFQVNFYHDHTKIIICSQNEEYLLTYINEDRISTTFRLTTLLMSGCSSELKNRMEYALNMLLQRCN

[24] = target: T2, Serine/threonine-protein kinase PLK4 (Homo sapiens, UniProt O00444); assay: Inhibition of N-terminal GST-tagged human PLK4 (1 to 391 amino acids) expressed in Escherichia coli using TMB as substrate after 30 mins by indirect ELISA assay
T2 sequence (O00444 whole entry): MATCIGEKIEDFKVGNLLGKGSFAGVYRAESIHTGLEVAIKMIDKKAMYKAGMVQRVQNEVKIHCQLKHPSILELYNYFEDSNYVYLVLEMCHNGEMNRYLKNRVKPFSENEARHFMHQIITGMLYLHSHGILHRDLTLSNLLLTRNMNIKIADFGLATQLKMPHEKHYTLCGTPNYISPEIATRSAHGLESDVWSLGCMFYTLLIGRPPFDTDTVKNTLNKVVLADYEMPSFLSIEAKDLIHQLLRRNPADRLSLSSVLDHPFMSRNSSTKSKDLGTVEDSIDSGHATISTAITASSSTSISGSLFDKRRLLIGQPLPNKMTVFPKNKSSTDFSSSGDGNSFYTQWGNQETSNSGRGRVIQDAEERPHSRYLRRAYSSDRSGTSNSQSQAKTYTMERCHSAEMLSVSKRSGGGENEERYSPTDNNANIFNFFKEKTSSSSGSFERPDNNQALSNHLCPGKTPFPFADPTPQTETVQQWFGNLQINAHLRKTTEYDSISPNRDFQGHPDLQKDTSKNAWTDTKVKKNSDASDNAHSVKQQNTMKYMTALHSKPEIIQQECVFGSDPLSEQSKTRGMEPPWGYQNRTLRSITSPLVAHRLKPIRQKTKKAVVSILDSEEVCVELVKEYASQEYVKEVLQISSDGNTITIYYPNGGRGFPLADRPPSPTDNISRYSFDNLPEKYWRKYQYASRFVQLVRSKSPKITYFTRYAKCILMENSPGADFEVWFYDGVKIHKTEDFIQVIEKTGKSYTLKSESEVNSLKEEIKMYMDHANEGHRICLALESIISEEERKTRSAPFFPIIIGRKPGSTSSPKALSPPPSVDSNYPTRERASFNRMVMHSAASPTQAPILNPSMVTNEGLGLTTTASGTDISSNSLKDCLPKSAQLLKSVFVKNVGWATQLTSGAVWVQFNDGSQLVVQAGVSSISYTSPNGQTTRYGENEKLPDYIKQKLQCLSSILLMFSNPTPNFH

[25] = target: T2, Serine/threonine-protein kinase PLK4; assay: Inhibition of human PLK4

Papp [1] | IC50 [2] | IC50 [3] | IC50 [4] | IC50 [5] | IC50 [6] | GI50 [16] | GI50 [17] | GI50 [18] | GI50 [19] | GI50 [20] | IC50 [21] | IC50 [22] | IC50 [23] | IC50 [24] | Structure (SMILES) | Ki [25] | also measured
197 ×10⁻⁶ cm/s | 20 nM | 130 nM | > 10000 nM | > 10000 nM | 2700 nM | 930 nM | 19000 nM | 25000 nM | 310 nM | 160 nM | > 10000 nM | > 10000 nM | > 10000 nM | 5.4 nM | O=C1Nc2ccccc2/C1=C\c1ccc2c(/C=C/c3ccncc3)n[nH]c2c1 | – | Activity [7]: 5.2%; Activity [8]: 32.5%; Activity [9]: 24.8%; Activity [10]: 1.7%; Activity [11]: 11.2%; Activity [12]: 11.85%; Activity [13]: 6%; Activity [14]: 34.3%; Activity [15]: 20.8%
276 ×10⁻⁶ cm/s | 1300 nM | 1000 nM | > 10000 nM | 9000 nM | 10000 nM | 480 nM | 2 nM | 1900 nM | 10 nM | 10 nM | > 10000 nM | > 10000 nM | > 10000 nM | 2 nM | CN(C)Cc1ccc(/C=C/c2n[nH]c3cc(/C=C4/C(=O)Nc5ccccc54)ccc23)cc1 | – | –
– | – | – | – | – | – | – | – | – | – | – | – | – | – | – | COCCOc1ccc2cc1OCC(=O)N(C)CCCN(C)Cc1c[nH]c3ncnc(c13)N2 | 25 nM | –
– | – | – | – | – | – | – | – | – | – | – | – | – | – | – | COc1cc2c(cc1F)C(c1ccccc1Cl)=Nc1c(n[nH]c1C)N2 [RG-1530] | 11 nM | –
